In patent US5001118A, “Method for preventing senescence and increasing bone mass” (priority 1986, dated 1991):

Legend:
[1] = Acute toxicity, oral administration; assay type: in vivo; details: mouse, in vivo, po
Description: (§1) A test solution was prepared by dissolving the present substance, 24R,25-(OH)2 -D3, in ethanol and again dissolving the resultant ethanol solution in triglyceride ester of a fatty acid of 8 to 10 carbon atoms so that the ethanol concentration is 2%. Then, the test solution was orally administered (p.o.) at a dose of 100 mg/kg to a test group of 10 ICR type male mice (each weighing 25±3 g). For two weeks, the mice were kept under observation for sign of toxication. […] They were then sacrificed and subjected to biochemical blood inspection, anatomical observation, and histopathological inspection.

ICR type male mice = experiment: Acute toxicity, oral administration; assay type: in vivo; details: 100 mg/kg p.o.
Description: as §1

ICR type mice = experiment: Biochemical inspection of blood serum, daily oral administration; assay type: in vivo, mouse (ICR type); design: key: .dwnarw.: Decrease below control; →: No difference from control; .uparw.: Increase above control
Source text: The results are compared below with respect to the following items with those obtained of the male- and female-groups using only the solvent without the present substance.

Structure (SMILES): C=C1CC[C@H](O)C/C1=C/C=C1\CCC[C@]2(C)[C@@H]([C@H](C)CC[C@@H](O)C(C)(C)O)CC[C@@H]12 [24R,25-(OH)2 -D3]
- LD50 at 336 h [1]: ≥ 100 mg/kg
- sign of abnormality (ICR type male mice; 10 ICR male mice, two weeks): no sign of abnormality
- survival (ICR type male mice; 10 ICR male mice, two weeks): All of the mice survived
- biochemical blood inspection, anatomical observation, and histopathological inspection vs control (ICR type male mice; ICR male mice, after two weeks): not different at all
- A/G (ICR type mice; female, 10 μg/kg): →
- ALP (ICR type mice; female, 10 μg/kg): →
- Alb (ICR type mice; female, 10 μg/kg): →
- BUN (ICR type mice; female, 10 μg/kg): →
- Ca (ICR type mice; female, 10 μg/kg): →
- GOT (ICR type mice; female, 10 μg/kg): →
- GPT (ICR type mice; female, 10 μg/kg): →
- Glu (ICR type mice; female, 10 μg/kg): →
- I-P (ICR type mice; female, 10 μg/kg): →
- LDH (ICR type mice; female, 10 μg/kg): →
- T-Bil (ICR type mice; female, 10 μg/kg): →
- T-CHO (ICR type mice; female, 10 μg/kg): →
- T-P (ICR type mice; female, 10 μg/kg): →
- A/G (ICR type mice; female, 100 μg/kg): →
- ALP (ICR type mice; female, 100 μg/kg): →
- Alb (ICR type mice; female, 100 μg/kg): →
- BUN (ICR type mice; female, 100 μg/kg): →
- Ca (ICR type mice; female, 100 μg/kg): →
- GOT (ICR type mice; female, 100 μg/kg): →
- GPT (ICR type mice; female, 100 μg/kg): →
- Glu (ICR type mice; female, 100 μg/kg): →
- I-P (ICR type mice; female, 100 μg/kg): →
- LDH (ICR type mice; female, 100 μg/kg): →
- T-Bil (ICR type mice; female, 100 μg/kg): →
- T-CHO (ICR type mice; female, 100 μg/kg): →
- T-P (ICR type mice; female, 100 μg/kg): →
- A/G (ICR type mice; female, 1000 μg/kg): →
- ALP (ICR type mice; female, 1000 μg/kg): →
- Alb (ICR type mice; female, 1000 μg/kg): →
- BUN (ICR type mice; female, 1000 μg/kg): →
- Ca (ICR type mice; female, 1000 μg/kg): →
- GOT (ICR type mice; female, 1000 μg/kg): →
- GPT (ICR type mice; female, 1000 μg/kg): →
- Glu (ICR type mice; female, 1000 μg/kg): →
- I-P (ICR type mice; female, 1000 μg/kg): →
- LDH (ICR type mice; female, 1000 μg/kg): →
- T-Bil (ICR type mice; female, 1000 μg/kg): →
- T-CHO (ICR type mice; female, 1000 μg/kg): →
- T-P (ICR type mice; female, 1000 μg/kg): →
- A/G (ICR type mice; male, 10 μg/kg): →
- ALP (ICR type mice; male, 10 μg/kg): →
- Alb (ICR type mice; male, 10 μg/kg): →
- BUN (ICR type mice; male, 10 μg/kg): →
- Ca (ICR type mice; male, 10 μg/kg): →
- GOT (ICR type mice; male, 10 μg/kg): →
- GPT (ICR type mice; male, 10 μg/kg): →
- Glu (ICR type mice; male, 10 μg/kg): →
- I-P (ICR type mice; male, 10 μg/kg): →
- LDH (ICR type mice; male, 10 μg/kg): →
- T-Bil (ICR type mice; male, 10 μg/kg): →
- T-CHO (ICR type mice; male, 10 μg/kg): →
- T-P (ICR type mice; male, 10 μg/kg): →
- A/G (ICR type mice; male, 100 μg/kg): →
- ALP (ICR type mice; male, 100 μg/kg): →
- Alb (ICR type mice; male, 100 μg/kg): →
- BUN (ICR type mice; male, 100 μg/kg): →
- Ca (ICR type mice; male, 100 μg/kg): →
- GOT (ICR type mice; male, 100 μg/kg): →
- GPT (ICR type mice; male, 100 μg/kg): →
- Glu (ICR type mice; male, 100 μg/kg): →
- I-P (ICR type mice; male, 100 μg/kg): →
- LDH (ICR type mice; male, 100 μg/kg): →
- T-Bil (ICR type mice; male, 100 μg/kg): →
- T-CHO (ICR type mice; male, 100 μg/kg): →
- T-P (ICR type mice; male, 100 μg/kg): →
- A/G (ICR type mice; male, 1000 μg/kg): →
- ALP (ICR type mice; male, 1000 μg/kg): →
- Alb (ICR type mice; male, 1000 μg/kg): →
- BUN (ICR type mice; male, 1000 μg/kg): .dwnarw.
- Ca (ICR type mice; male, 1000 μg/kg): →
- GOT (ICR type mice; male, 1000 μg/kg): →
- GPT (ICR type mice; male, 1000 μg/kg): →
- Glu (ICR type mice; male, 1000 μg/kg): .dwnarw.
- I-P (ICR type mice; male, 1000 μg/kg): →
- LDH (ICR type mice; male, 1000 μg/kg): .dwnarw.
- T-Bil (ICR type mice; male, 1000 μg/kg): .dwnarw.
- T-CHO (ICR type mice; male, 1000 μg/kg): →
- T-P (ICR type mice; male, 1000 μg/kg): →
